For the assay, the target named is Factor D (Homo sapiens (Human), UniProt P00746). In words: biochemical. Type of assay: biochemical. Conditions: read-out: IC50.

Where a name gives a salt, the structure may show the parent alone.

Factor D, sequence (P00746 26-253): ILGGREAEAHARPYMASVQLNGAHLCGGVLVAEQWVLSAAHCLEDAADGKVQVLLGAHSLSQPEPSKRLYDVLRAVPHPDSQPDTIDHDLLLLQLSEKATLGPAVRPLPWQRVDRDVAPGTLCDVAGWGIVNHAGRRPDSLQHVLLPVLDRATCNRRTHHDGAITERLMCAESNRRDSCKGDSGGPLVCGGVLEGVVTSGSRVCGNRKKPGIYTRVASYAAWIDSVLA

`CC(=O)c1cn(CC(=O)N2[C@@H]3C[C@@H]3C[C@H]2C(=O)NCc2cccc(Cl)c2F)c2ccc(OCc3ncccn3)cc12` [Example 666, (1R,3S,5R)-2-{2-[3-Acetyl-5-(pyrimidin-2-ylmethoxy)-indol-1-yl]-acetyl}-2-aza-bicyclo [3.1.0]hexane-3-carboxylic acid 3-chloro-2-fluoro-benzylamide]: the IC50 is 6 nM.
Under `CCO[C@H]1[C@@H](C(=O)NCc2cccc(Cl)c2F)N(C(=O)Cn2cc(C(C)=O)c3cc(C)ncc32)C[C@@H]1F` [Example 667, (2S,3S,4S)-1-[2-(3-Acetyl-5-methyl-pyrrolo[2,3-c]pyridin-1-yl)-acetyl]-3-ethoxy-4-fluoro-pyrrolidine-2-carboxylic acid 3-chloro-2-fluoro-benzylamide formate] stands 16 nM; under `NC(=O)c1nn(CC(=O)N2[C@@H]3C[C@@H]3C[C@H]2C(=O)Nc2cccc(Br)c2F)c2cnccc12` [Example 668, 1-{2-[(1R,3S,5R)-3-(3-Bromo-2-fluoro-phenylcarbamoyl)-2-aza-bicyclo[3.1.0]hex-2-yl]-2-oxo-ethyl}-1H-pyrazolo[3,4-c]pyridine-3-carboxylic acid amide], 19 nM; under `Cc1cc2c(C(N)=O)nn(CC(=O)N3[C@@H]4C[C@@H]4C[C@H]3C(=O)Nc3cccc(Br)c3F)c2cn1` [Example 670, 1-{2-[(1R,3S,5R)-3-(3-Bromo-2-fluoro-phenylcarbamoyl)-2-aza-bicyclo[3.l.0]hex-2-yl]-2-oxo-ethyl}-5-methyl-1H-pyrazolo[3,4-c]pyridine-3-carboxylic acid amide], 90 nM.
Under `CCc1cc2c(C(N)=O)nn(CC(=O)N3[C@@H]4C[C@@H]4C[C@H]3C(=O)Nc3cccc(Br)c3F)c2cn1` [Example 671, 1-{2-[(1R,3S,5R)-3-(3-Bromo-2-fluoro-phenylcarbamoyl)-2-aza-bicyclo[3.1.0]hex-2-yl]-2-oxo-ethyl}-5-ethyl-1H-pyrazolo[3,4-c]pyridine-3-carboxylic acid amide] stands 77 nM; under `CC(C)c1cccc(NC(=O)[C@@H]2C[C@H]3C[C@H]3N2C(=O)Cn2nc(C(N)=O)c3ccncc32)n1` [Example 673, 1-{2-[(1R,3S,5R)-3-(6-Isopropyl-pyridin-2-ylcarbamoyl)-2-aza-bicyclo [3.1.0]hex-2-yl]-2-oxo-ethyl}-1H-pyrazolo[3,4-c]pyridine-3-carboxylic acid amide], 157 nM; under `NC(=O)c1nn(CC(=O)N2[C@@H]3C[C@@H]3C[C@H]2C(=O)Nc2cccc(C3CC3)c2F)c2ccccc12` [Example 674, 1-{2-[(1R,3S,5R)-3-(3-Cyclopropyl-2-fluoro-phenylcarbamoyl)-2-aza-bicyclo[3.2.1]hex-2-yl]-2-oxo-ethyl}-1H-indazole-3-carboxylic acid amide], 75 nM.
Consider `C[C@@]12C[C@@H](C(=O)NCc3cccc(Cl)c3F)N(C(=O)Cn3nc(C(N)=O)c4ccncc43)[C@@H]1C2` [Example 675, 1-{2-[(1R,3S,5R)-3-(3-Chloro-2-fluoro-benzylcarbamoyl)-5-methyl-2-aza-bicyclo [3.1.0]hex-2-yl]-2-oxo-ethyl}-1H-pyrazolo[3,4-c]pyridine-3-carboxylic acid amide], for which the IC50 was found to be 23 nM.
Under `CC(=O)c1nn(CC(=O)N2[C@@H]3C[C@@H]3C[C@H]2C(=O)N[C@H](CO)c2cccc(Cl)c2F)c2ncccc12` [Example 677, (1R,3S,5R)-2-[2-(3-Acetyl-pyrazolo[3,4-b]pyridin-1-yl)-acetyl]-2-aza-bicyclo [3.1.0]hexane-3-carboxylic acid [(S)-1-(3-chloro-2-fluoro-phenyl)-2-hydroxy-ethyl]-amide] stands 10 nM.
On to `COC[C@@H](NC(=O)[C@@H]1C[C@H]2C[C@H]2N1C(=O)Cc1nc(C(C)=O)c2ccccn12)c1cccc(Cl)c1F` [Example 678, (1R,3S,5R)-2-[2-(1-Acetyl-imidazo[1,5-a]pyridin-3-yl)-acetyl]-2-aza-bicyclo [3.1.0]hexane-3-carboxylic acid [(S)-1-(3-chloro-2-fluoro-phenyl)-2-methoxy-ethyl]-amide], for which the IC50 was found to be 40 nM.
The figure for `CC(=O)c1nc(CC(=O)N2[C@@H]3C[C@@H]3C[C@H]2C(=O)N[C@H](CC#N)c2cccc(Cl)c2F)n2ccccc12` [Example 679, (1R,3S,5R)-2-[2-(1-Acetyl-imidazo[1,5-a]pyridin-3-yl)-acetyl]-2-aza-bicyclo[3.1.0]hexane-3-carboxylic acid [(R)-1-(3-chloro-2-fluoro-phenyl)-2-cyano-ethyl]-amide] is 134 nM; for `CO[C@H]1[C@@H](C(=O)NCc2cccc(Cl)c2F)N(C(=O)Cn2nc(C(C)=O)c3ccccc32)C[C@@H]1F` [Example 680, (2S,3S,4S)-1-[2-(3-Acetyl-indazol-1-yl)-acetyl]-4-fluoro-3-methoxy-pyrrolidine-2-carboxylic acid 3-chloro-2-fluoro-benzylamide] it is 16 nM; for `CO[C@H]1[C@@H](C(=O)NCc2cccc(Cl)c2F)N(C(=O)Cn2cc(C(C)=O)c3ccncc32)C[C@@H]1F` [Example 681, (2S,3S,4S)-1-[2-(3-Acetyl-pyrrolo[2,3-c]pyridin-1-yl)-acetyl]-4-fluoro-3-methoxy-pyrrolidine-2-carboxylic acid 3-chloro-2-fluoro-benzylamide] it is 19 nM.
Take `CO[C@H]1[C@@H](C(=O)NCc2cccc(Cl)c2F)N(C(=O)Cn2nc(C(C)=O)c3ccncc32)C[C@@H]1F` [Example 682, (2S,3S,4S)-1-[2-(3-Acetyl-pyrazolo[3,4-c]pyridin-1-yl)-acetyl]-4-fluoro-3-methoxy-pyrrolidine-2-carboxylic acid 3-chloro-2-fluoro-benzylamide]: the IC50 is 12 nM.
Under `NC(=O)c1nn(CC(=O)N2[C@@H]3C[C@@H]3C[C@H]2C(=O)Nc2cccc(-c3ccccc3F)c2F)c2cnccc12` [Example 684, 1-{2-[(1R,3S,5R)-3-(2,2′-Difluoro-biphenyl-3-ylcarbamoyl)-2-aza-bicyclo[3.1.0]hex-2-yl]-2-oxo-ethyl}-1H-pyrazolo[3,4-c] pyridine-3-carboxylic acid amide] stands 27 nM.
The figure for `NC(=O)c1nn(CC(=O)N2[C@@H]3C[C@@H]3C[C@H]2C(=O)Nc2cccc(-c3ccccc3Cl)c2F)c2cnccc12` [Example 685, 1-{2-[(1R,3S,5R)-3-(2′-Chloro-2-fluoro-biphenyl-3-ylcarbamoyl)-2-aza-bicyclo[3.1.0]hex-2-yl]-2-oxo-ethyl}-1H-pyrazolo[3,4-c] pyridine-3-carboxylic acid amide] is 5 nM.
Regarding `NC(=O)c1nn(CC(=O)N2[C@@H]3C[C@@H]3C[C@H]2C(=O)Nc2cccc(-c3ncccc3F)c2F)c2ccccc12` [Example 686, 1-(2-{(1R,3S,5R)-3-[2-Fluoro-3-(3-fluoro-pyridin-2-yl)-phenylcarbamoyl]-2-aza-bicyclo[3.1.0]hex-2-yl}-2-oxo-ethyl)-1H-indazole-3-carboxylic acid amide], the IC50 stood at 30 nM.
As to `Cc1cccnc1-c1cccc(NC(=O)[C@@H]2C[C@H]3C[C@H]3N2C(=O)Cn2nc(C(N)=O)c3ccncc32)c1F` [Example 687, 1-(2-{(1R,3S,5R)-3-[2-Fluoro-3-(3-methyl-pyridin-2-yl)-phenylcarbamoyl]-2-aza-bicyclo[3.1.0]hex-2-yl}-2-oxo-ethyl)-1H-pyrazolo[3,4-c] pyridine-3-carboxylic acid amide], the IC50 is 98 nM.
Under `NC(=O)c1nn(CC(=O)N2[C@@H]3C[C@@H]3C[C@H]2C(=O)Nc2cccc(-c3ncccc3Cl)c2F)c2cnccc12` [Example 688, 1-(2-{(1R,3S,5R)-3-[3-(3-Chloro-pyridin-2-yl)-2-fluoro-phenylcarbamoyl]-2-aza-bicyclo[3.1.0]hex-2-yl}-2-oxo-ethyl)-1H-pyrazolo[3,4-c] pyridine-3-carboxylic acid amide] stands 10 nM.
Under `COC(=O)c1ccc2c(C(C)=O)cn(CC(=O)N3[C@@H]4C[C@@H]4C[C@H]3C(=O)NCc3cccc(Cl)c3F)c2n1` [Example 689, 3-Acetyl-1-{2-[(1R,3S,5R)-3-(3-chloro-2-fluoro-benzylcarbamoyl)-2-aza-bicyclo[3.1.0]hex-2-yl]-2-oxo-ethyl}-1H-pyrrolo[2,3-b] pyridine-6-carboxylic acid methyl ester] stands 156 nM.
As to `C[C@@H](NC(=O)[C@@H]1C[C@@H](F)CN1C(=O)Cn1nc(C(N)=O)c2ccncc21)c1cccc(Cl)c1F` [Example 690, 1-(2-{(2S,4R)-2-[(R)-1-(3-Chloro-2-fluoro-phenyl)-ethylcarbamoyl]-4-fluoro-pyrrolidin-1-yl}-2-oxo-ethyl)-1H-pyrazolo[3,4-c]pyridine-3-carboxylic acid amide], the half-inhibitory concentration (IC50) was 34 nM.
The figure for `Cc1cc2c(C(N)=O)nn(CC(=O)N3C[C@H](F)C[C@H]3C(=O)N[C@H](C)c3cccc(Cl)c3F)c2cn1` [Example 691, 1-(2-{(2S,4R)-2-[(R)-1-(3-Chloro-2-fluoro-phenyl)-ethylcarbamoyl]-4-fluoro-pyrrolidin-1-yl}-2-oxo-ethyl)-5-methyl-1H-pyrazolo[3,4-c] pyridine-3-carboxylic acid amide] is 68 nM.
Under `NC(=O)c1nn(CC(=O)N2[C@@H]3C[C@@H]3C[C@H]2C(=O)NCc2cccc(Cl)c2F)c2ccccc12` [Example 692, 1-{2-[(1R,3S,5R)-3-(3-Chloro-2-fluoro-benzylcarbamoyl)-2-aza-bicyclo[3.1.0]hex-2-yl]-2-oxo-ethyl}-1H-indazole-3-carboxylic acid amide] stands 3 nM; under `Cc1nccc2c(C(N)=O)nn(CC(=O)N3[C@@H]4C[C@@H]4C[C@H]3C(=O)N[C@H](C)c3cccc(Cl)c3F)c12` [Example 693, 1-(2-{(1R,3S,5R)-3-[(R)-1-(3-Chloro-2-fluoro-phenyl)-ethylcarbamoyl]-2-aza-bicyclo[3.1.0]hex-2-yl}-2-oxo-ethyl)-7-methyl-1H-pyrazolo[3,4-c]pyridine-3-carboxylic acid amide], 6 nM.
The figure for `Cc1nccc2c(C(N)=O)nn(CC(=O)N3[C@@H]4C[C@@H]4C[C@H]3C(=O)NCc3cccc(Cl)c3F)c12` [Example 694, 1-{2-[(1R,3S,5R)-3-(3-Chloro-2-fluoro-benzylcarbamoyl)-2-aza-bicyclo[3.1.0]hex-2-yl]-2-oxo-ethyl}-7-methyl-1H-pyrazolo[3,4-c]pyridine-3-carboxylic acid amide] is 17 nM.
